Results as given in patent publication US10961200B2, “Small molecule inhibitors of lactate dehydrogenase and methods of use thereof” (THE UNITED STATES OF AMERICA, AS REPRESENTED BY THE …, priority 2014, dated 2021).

Legend:
[1] = oral pharmacokinetics in male CD1 mice (plasma, LC/MS/MS); type: in vivo; conditions: oral 10 mg/kg; for F: fraction of the dose that enters systemic circulation
Human LDHA = Human LDHA (Homo sapiens (Human), UniProt P00338); assay: human LDHA primary biochemical assay (resazurin/diaphorase coupled, fluorescence); conditions: LDHA inhibitory activity, activity level based on IC50 (Table 7)
From the text: Test compounds were placed in a Greiner Bio-One (Monroe, N.C.) 1536-well black solid bottom assay plate. 200 millimolar (mM) Tris HCl, pH 7.4, 100 micromolar […] EDTA and 0.01% TWEEN-20™, final concentration, was used as the assay buffer. The LDHA reagent was 2 nanomolar (nM) Human LDHA (Meridian Life Science, Inc., Memphis, Tenn.), final concentration, in assay buffer.

MiaPaCa2 cells = assay: cell-based HT lactate assay, colorimetric/fluorometric detection (inhibition of lactate production); conditions: Homo sapiens, MIA PaCa-2; class symbols, 0 to 3 pluses

Row | SMILES | IC50 (Human LDHA) [nM] | IC50 (MiaPaCa2 cells) [nM] | AUC(0-t) ([1]; mouse, plasma) [ng·h/mL] | Cmax ([1]; mouse, plasma) [ng/mL] | F [1] [%]
1 | NS(=O)(=O)c1ccc(Cc2c(-c3cccc(-c4ccccc4)c3)nn(-c3nc(C(=O)O)cs3)c2C(F)(F)F)cc1 [Compound 42, 2-(3-([1,1′-biphenyl]-3-yl)-4-(4-sulfamoylbenzyl)-5-(trifluoromethyl)-1H-pyrazol-1-yl)thiazole-4-carboxylic acid] |  |  | 1210 | 159 | 34
2 | CCOC(=O)c1csc(-n2nc(-c3cccc(-c4ccccc4)c3)c(Cc3ccc(S(N)(=O)=O)cc3)c2C(F)(F)F)n1 [Compound 141, ethyl 2-(3-([1,1′-bipheny]-3-yl)-4-(4-sulfamoylbenzyl)-5-(trifluoromethyl)-1H-pyrazol-1-yl)thiazole-4-carboxylate] |  |  |  |  | 69
3 | NS(=O)(=O)c1ccc(Cc2c(-c3cccc(Oc4cccc(F)c4)c3)nn(-c3nc(C(=O)O)cs3)c2CC2CC2)cc1 [Compound 526, 2-(5-(cyclopropylmethyl)-3-(3-(3-fluorophenoxy)phenyl)-4-(4-sulfamoylbenzyl)-1H-pyrazol-1-yl)thiazole-4-carboxylic Acid] | 100 to 1000 | 10000 to 57000 |  |  | 
4 | NS(=O)(=O)c1ccc(Cc2c(-c3ccc(F)c(OCc4ccc(F)cc4)c3)nn(-c3nc(C(=O)O)cs3)c2CC2CC2)cc1 [Compound 527, 2-(5-(cyclopropylmethyl)-3-(4-fluoro-3-((4-fluorobenzyl)oxy)phenyl)-4-(4-sulfamoylbenzyl)-1H-pyrazol-1-yl)thiazole-4-carboxylic Acid] | < 100 | 1000 to 10000 |  |  | 
5 | NS(=O)(=O)c1ccc(Cc2c(-c3ccc(F)c(OCc4cccc(F)c4)c3)nn(-c3nc(C(=O)O)cs3)c2CC2CC2)cc1F [Compound 528, 2-(5-(cyclopropylmethyl)-3-(4-fluoro-3-((3-fluorobenzyl)oxy)phenyl)-4-(3-fluoro-4-sulfamoylbenzyl)-1H-pyrazol-1-yl)thiazole-4-carboxylic Acid] | < 100 | < 1000 |  |  | 
6 | NS(=O)(=O)c1ccc(Cc2c(-c3ccc(F)c(C(=O)NCc4ccccc4)c3)nn(-c3nc(C(=O)O)cs3)c2CC2CC2)cc1F [Compound 544, 2-(3-(3-(benzylcarbamoyl)-4-fluorophenyl)-5-(cyclopropylmethyl)-4-(3-fluoro-4-sulfamoylbenzyl)-1H-pyrazol-1-yl)thiazole-4-carboxylic acid] | < 100 | 1000 to 10000 |  |  | 

More lines, main results first:

Row | IC50 (Human LDHA) [nM] | IC50 (MiaPaCa2 cells) [nM] | SMILES | AUC(0-t) ([1]; mouse, plasma) [ng·h/mL] | Cmax ([1]; mouse, plasma) [ng/mL] | F [1] [%]
7 | < 100 | 1000 to 10000 | NS(=O)(=O)c1ccc(Cc2c(-c3ccc(F)c(C(F)(F)F)c3)nn(-c3nc(C(=O)O)cs3)c2CC2CC2)cc1F [Compound 542, 2-(5-(cyclopropylmethyl)-3-(4-fluoro-3-(trifluoromethyl)phenyl)-4-(3-fluoro-4-sulfamoylbenzyl)-1H-pyrazol-1-yl)thiazole-4-carboxylic acid] |  |  | 
8 | < 100 | 1000 to 10000 | CC(C)(C)NC(=O)c1cc(-c2nn(-c3nc(C(=O)O)cs3)c(CC3CC3)c2Cc2ccc(S(N)(=O)=O)c(F)c2)ccc1F [Compound 543, 2-(3-(3-(tert-butylcarbamoyl)-4-fluorophenyl)-5-(cyclopropylmethyl)-4-(3-fluoro-4-sulfamoylbenzyl)-1H-pyrazol-1-yl)thiazole-4-carboxylic acid] |  |  | 
9 | < 100 | 10000 to 57000 | NS(=O)(=O)c1ccc(Cc2c(-c3ccc(F)c(C(=O)N4CCCC4)c3)nn(-c3nc(C(=O)O)cs3)c2CC2CC2)cc1F [Compound 545, 2-(5-(cyclopropylmethyl)-3-(4-fluoro-3-(pyrrolidine-1-carbonyl)phenyl)-4-(3-fluoro-4-sulfamoylbenzyl)-1H-pyrazol-1-yl)thiazole-4-carboxylic acid] |  |  | 
